The results in this text go back to patent US11242555B2, “Molecular sensors and uses thereof” (New York University, priority 2018, dated 2022).

One assay has as its system DNA within living cells. The assay can be described thus: Linear probe in living cells transfected with the oligo probe (confocal FRET ratio). Format: cell-based. To be noted: for FRET ratio (Cy5:Cy3) in cells in presence of intercalating drug vs no drug: cells transfected with linear probe, drug in culture medium. The protocol: Cells transfected with the oligo probe were imaged by exciting the donor (Cy3) and imaging the fluorescence of Cy3 (A) and Cy5 (acceptor) (B) in the appropriate spectral ranges using a confocal microscope. (C) The false-colored images can be merged, therefore producing a false color image where orange indicates a large FRET ratio. […] (G) The drop in the FRET ratio is measured by calculating the ratio of the Cy5 signal to that of Cy3 within the nuclei of cells in presence of the three intercalating compounds.
The molecular sensors were used in cell culture according to the following: 1) the desired cells were prepared in glass-bottom culture dishes or wells to a confluence lower than 70%. 2) Two hours before imaging, a desired transfection protocol (e.g., liposome transfection), and the like) is used with either sensor depending on the desired mode of DNA binding to be investigated. 3) After the transfection period, the culture was washed from excess sensors. 4) The culture disk was transferred to the confocal microscope for imaging. […] 6) If using filter cubes use the appropriate cubes to image donor fluorescence in one channel and acceptor fluorescence in the other. If using spectral imaging set the imaging wavelength windows for the two fluorophores. 7) Cells were identified that have been successfully transfected as indicated by fluorescence throughout the cell. 8) Images were acquired in both channels. 9) Software to calculate the ratio of acceptor/donor fluorescence (the FRET ratio) for the desired regions within the imaged cells was used. 10) The desired drug to be tested was added. 11) The cells were imaged again and the FRET ratio was calculated as a function of the desired variable: e.g. time, drug concentration, region within the cell, etc. A change in the FRET ratio indicates DNA drug binding.
Using laser scanning confocal microscopy the cells are imaged by exciting the donor (Cy3) and imaging the fluorescence of Cy3 and Cy5 (acceptor) in the appropriate spectral ranges (images A, B, D, E). The false-colored images can be merged therefore producing a false color image where green indicates a small FRET ratio and red a large FRET ratio and intermediate values being yellow/orange (images C and F). […] The FRET ratio can be measured from the ratio of Cy5:Cy3 intensities.
Cells were transfected with the sensor and imaged in culture medium as described in FIG. 17. […] The average FRET ratio measured as Cy5:Cy3 intensities in the images is plotted as a function of time in the lower right panel.

Assay [1] concerns double-stranded oligo probe (DNA). The assay can be described thus: Linear oligo probe titration with intercalating drug in solution (FRET ratio, Hill plot binding constant). As to conditions: for binding constant: Hill plot fit of fraction of intercalated bases vs drug concentration, all binding sites assumed occupied at saturation.
The test system is the same in assay [2]. The assay can be described thus: High-throughput screen of a compound library with the linear oligo probe (FRET ratio, 384 well plate). Format: binding. The protocol:
A library of compounds was mixed with the oligo probe in 384 well plate format. (A) The fluorescence spectra of the probe were recorded on a plate reader as in FIG. 21 and the FRET ratio (Cy5/Cy3 intensity) was calculated. […] (B) A library consisting of 1600 compounds from FDA and internationally approved drugs was screened to detect potential intercalators that can be drug repositioning targets.
The molecular sensors were used in vitro according to the following: 1) The sensors were diluted in a NaCl solution (e.g., in a 50-100 mM NaCl solution) and 0.2% BSA solution to a concentration of 1 μM. This can be adjusted depending on the sensitivity of the fluorescence measurement device. 2) The fluorescence spectrum was measured using a fluorescence spectrophotometer, a plate reader, or any other ad-hoc means. […] 3) The molecular species was added to be characterized for DNA binding properties or to be tested for intercalating or groove binding ability. The appropriate sensor is used (e.g., a linear or flexible molecular sensor). The fluorescence spectrum was measured again using the same methods and settings. 4) The FRET ratio was compared for both the sensor alone and sensor plus tested molecule. The FRET ratio is calculated by dividing the peak intensity of the acceptor fluorescence by that of the donor fluorescence.

In assay [3] the test system is nuclei of cells in culture. Nature of the assay: Flexible sensor FRET ratio within nuclei of cells treated with chromatin-disrupting drugs (macromolecular crowding). Format: cell-based. To be noted: flexible sensor within nuclei of cells in culture medium. How it is done: The flexible molecular sensors reports on the local macromolecular crowding within living cells in culture (FIG. 5). The sensor was introduced into cells by liposome transfection. After a short incubation period of 45 minutes, the cells plated on an imaging well were washed and imaged using scanning laser confocal microscopy. The cells were then imaged by exciting the donor (Cy3) and imaging the fluorescence of Cy3 and Cy5 (acceptor) in the appropriate spectral ranges (top two images). The false-colored images can be merged therefore producing another false color image where green (FIG. 5—top left) indicates a small FRET ratio and red (FIG. 5—top right) a large FRET ratio an intermediate values being yellow/orange (FIG. 5—bottom left). A quantitative measurement of the FRET ratio is represented as a gray scale image (FIG. 5—bottom right) where each pixel is in the ratio of the intensity in the Cy5 channel divided by that in the Cy3 channel. Local variations indicate local differences in the degree of macromolecular crowding.
Drugs that disrupt chromatin compaction result in a more crowded nucleus (FIG. 11). The FRET ratio was measured within the nuclei of cells in culture medium in the absence and presence of drugs that disrupt chromatin structure. Three drugs that disrupt chromatin in different ways were used: trichostatin A (TSA) and tubacin both of which inhibit histone deacetylases, and etoposide which forms a complex with DNA and topisomerase II resulting in the accumulation of DNA breaks.

“Also recorded” adds a separate entry of the source. Starred links: 1 amine or outer side, 2 acyl side, 3 side chain; linkers in the order of their positions; H or OH if unused. Positions of bridges follow the written chain, without caps; N, C: chain ends. Non-standard residues stand in square brackets, D forms with d. Residues, ends and D or L forms follow the SMILES beside them. Chains are numbered I, II in the order given. Actinocin(9to1) = Cc1c2oc3c(C)ccc(C(=O)[*:1])c3nc-2c(C(=O)[*:2])c(N)c1=O; NMeV = CN[C@H](C(=O)O)C(C)C; Sar = CNCC(=O)O

Consider `Cc1c2oc3c(C)ccc(C(=O)N[C@@H]4C(=O)N[C@H](C(C)C)C(=O)N5CCC[C@H]5C(=O)N(C)CC(=O)N(C)[C@@H](C(C)C)C(=O)O[C@@H]4C)c3nc-2c(C(=O)N[C@@H]2C(=O)N[C@H](C(C)C)C(=O)N3CCC[C@H]3C(=O)N(C)CC(=O)N(C)[C@@H](C(C)C)C(=O)O[C@@H]2C)c(N)c1=O` [DACTINOMYCIN] (I: T[dV]P[Sar][NMeV] / II: T[dV]P[Sar][NMeV]; ester I:1-I:C, II:1-II:C; linker I:N-II:N via Actinocin(9to1)), for which the “FRET ratio (Cy5:Cy3) in cells in presence of intercalating drug vs no drug” value (“FRET ratio (Cy5:Cy3) in cells … vs no drug” for short) with DNA within living cells is “drop if the FRET efficiency upon intercalation within the cell”; with DNA within living cells (listed as Actinomycin D) it was “decrease in the FRET ratio; also recorded: clear difference in FRED ratio”. Besides, the “time-course of drug entry into the cell (drop in FRET ratio within the nucleus)” value with DNA within living cells (time-lapse after drug was introduced into the culture medium) is “from orange (high FRET) to green (low FRET)”. Besides, the binding constant in assay [1] was found to be 2e+06 M⁻¹. Further, in assay [1] (linear probe in solution, excited at 500 nm, peak acceptor/peak donor), the “FRET ratio as a function of intercalator concentration” value is recorded as “decreases”. Further, the FRET ratio in assay [2] came out at 0.4765.

`CS[C@H]1SC[C@H]2C(=O)N(C)[C@@H](C(C)C)C(=O)OC[C@@H](NC(=O)c3cnc4ccccc4n3)C(=O)N[C@@H](C)C(=O)N(C)[C@@H]1C(=O)N(C)[C@@H](C(C)C)C(=O)OC[C@@H](NC(=O)c1cnc3ccccc3n1)C(=O)N[C@@H](C)C(=O)N2C` [Echinomycin]: in the assay with DNA within living cells, the “FRET ratio (Cy5:Cy3) in cells … vs no drug” value is given as “clear difference in FRED ratio”. In assay [1], the binding constant worked out at 400000 M⁻¹.

For `c1cnc2c(c1)ccc1cccnc12` [Phenanthroline], the “FRET ratio (Cy5:Cy3) in cells … vs no drug” value in the assay on DNA within living cells is “clear difference in FRED ratio”. Also, the binding constant in assay [1] was 710 M⁻¹.

With `COc1cc([C@@H]2c3cc4c(cc3[C@@H](O[C@@H]3O[C@@H]5CO[C@@H](C)O[C@H]5[C@H](O)[C@H]3O)[C@H]3COC(=O)[C@H]23)OCO4)cc(OC)c1O` [etoposide], the “FRET ratio in nuclei of treated cells compared to untreated cells” value (shortened to “FRET ratio in nuclei of treated cells”) in assay [3] was “larger FRET ratio”.

Take `CC(/C=C/C(=O)NO)=C\[C@@H](C)C(=O)c1ccc(N(C)C)cc1` [trichostatin A]: the “FRET ratio in nuclei of treated cells” value in assay [3] is “larger FRET ratio”.

Take `O=C(CCCCCCC(=O)Nc1ccc([C@H]2O[C@@H](CSc3nc(-c4ccccc4)c(-c4ccccc4)o3)C[C@@H](c3ccc(CO)cc3)O2)cc1)NO` [tubacin]: the “FRET ratio in nuclei of treated cells” value in assay [3] is reported as “larger FRET ratio”.
